From PMC11791213, “Elucidating ligand interactions and small-molecule activation in the pyrrolnitrin biosynthetic enzyme PrnB” (The Journal of Biological Chemistry, 2024) come the findings set out here.

In general, Kd refers to the constant that tells how readily two partners part at equilibrium. A higher Kd goes with lower affinity.

The target of assay [1] is T1, PsPrnB.
T1 construct: gene prnB; N-terminal His6-tag (TEV-cleavable)
As to the kind of experiment: UV-visible absorption titration of the ferric enzyme; EPR; resonance Raman. In kind it is binding, Pseudomonas sp. ADAK18.

Assay [2] concerns the target T2, FbPrnB (Flavobacteriales bacterium, UniProt A0AC62AEF3).
T2 construct: N-terminal His-tag
T2 sequence (A0AC62AEF3 1-350): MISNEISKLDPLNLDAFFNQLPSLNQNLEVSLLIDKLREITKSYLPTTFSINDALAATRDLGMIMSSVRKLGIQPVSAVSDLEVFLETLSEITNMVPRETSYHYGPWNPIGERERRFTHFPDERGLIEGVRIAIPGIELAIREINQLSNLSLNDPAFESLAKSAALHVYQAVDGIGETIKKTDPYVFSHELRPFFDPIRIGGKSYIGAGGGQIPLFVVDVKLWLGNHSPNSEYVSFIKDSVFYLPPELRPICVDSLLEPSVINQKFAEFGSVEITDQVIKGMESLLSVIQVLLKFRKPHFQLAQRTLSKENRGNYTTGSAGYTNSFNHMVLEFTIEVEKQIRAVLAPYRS
As to the kind of experiment: X-ray crystal structure of the binary complex; UV-visible; resonance Raman. Format: binding.

Assay [3] addresses T2, FbPrnB. As to the kind of experiment: X-ray crystal structure of the binary complex ([…] and […] occupancy). In kind it is binding.
Assay [4] has as its target T2, FbPrnB. As to the kind of experiment: X-ray crystal structure of the binary complex. In kind it is binding.
The target in assay [5] is T1, PsPrnB. As to the kind of experiment: UV-visible absorption titration of the ferric enzyme; resonance Raman. Format: binding, Pseudomonas sp. ADAK18.

Each structure is given as a SMILES string.

`N[C@@H](Cc1c[nH]c2ccccc12)C(=O)O` [Trp, L-tryptophan] registered a Kd on PsPrnB [1] of 4.1 µM. Moreover, the “X-ray crystal structure of the binary complex; UV-visible; resonance Raman” value at FbPrnB [2] was “binding conformations of 7-Cl-Trp and Trp are nearly identical (Fig. S7A), with the amino group directly coordinating to the iron center”.

`NCCc1c[nH]c2ccccc12` [TAM, tryptamine] showed a Kd on PsPrnB [1] of 411 µM. For the same compound, on FbPrnB [3], the “X-ray crystal structure of the binary complex (75% and 90% occupancy)” value was “The amine tail is flexible and adopts two distinct conformations in Chain A (Fig. 5D), with one remaining in coordination”.

Take `N[C@@H](Cc1c[nH]c2c(Cl)cccc12)C(=O)O` [7-Cl-Trp, 7-chloro-L-tryptophan]: the “X-ray crystal structure of the binary complex” value on FbPrnB [4] was “binding conformations of 7-Cl-Trp and Trp are nearly identical (Fig. S7A), with the amino group directly coordinating to the iron center”. The compound further returned a Kd on PsPrnB [5] of 1.9 µM.

Turning to `O=C(O)CCc1c[nH]c2ccccc12` [IDPA, 3-indolepropionic acid], the Kd on PsPrnB [1] was 9.1 µM. Also, on FbPrnB [4], the “X-ray crystal structure of the binary complex” value is “The structure of the IDPA-bound complex aligns well with our spectroscopic data, confirming that IDPA does not directly interact with the iron”.
